Measured values taken from PubChem BioAssay AID248 (DTP/NCI, 2004).
Several values for one entry are separate records, joined by “and”; a condition that tells them apart may be missing. Identical values can stand only once. Toxic doses and inconclusive results are not listed. Rule as the data show it: active = T/C of 150% or more; inactive = T/C below 125%.

Test system: L1210 leukemia ip in BDF1 mice, survival T/C
Test: NCI In Vivo Anticancer Drug Screen. Data for tumor model L1210 Leukemia (intraperitoneal) in B6D2F1 (BDF1) mice
Details: endpoint: mean survival time, higher = longer survival
Outline: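 Tumor cells were implanted, animals were treated, and survival was followed. The result divides the treated measurement by the vehicle-control measurement.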

Measured: T/C

O=C(Nc1cc([N+](=O)[O-])ccc1O)Nc1cc(C(F)(F)F)ccc1Cl
inactive: dose: 100.0 mg/kg/injection, schedule: Q01DX001 (ip), vehicle: carboxymethylcellulose (CMC) 90 % of control | dose: 100.0 mg/kg/injection, schedule: Q01DX009 (ip), vehicle: carboxymethylcellulose (CMC) 95 % of control and 103 % of control | dose: 100.0 mg/kg/injection, schedule: Q04DX002 (ip), vehicle: carboxymethylcellulose (CMC) 97 % of control and 101 % of control | dose: 100.0 mg/kg/injection, schedule: Q04DX003 (ip), vehicle: carboxymethylcellulose (CMC) 94 % of control | dose: 200.0 mg/kg/injection, schedule: Q01DX001 (ip), vehicle: carboxymethylcellulose (CMC) 93 % of control | dose: 200.0 mg/kg/injection, schedule: Q01DX009 (ip), vehicle: carboxymethylcellulose (CMC) 93 % of control and 95 % of control | dose: 200.0 mg/kg/injection, schedule: Q04DX002 (ip), vehicle: carboxymethylcellulose (CMC) 93 % of control and 97 % of control | dose: 200.0 mg/kg/injection, schedule: Q04DX003 (ip), vehicle: carboxymethylcellulose (CMC) 92 % of control | dose: 400.0 mg/kg/injection, schedule: Q01DX001 (ip), vehicle: carboxymethylcellulose (CMC) 92 % of control | dose: 400.0 mg/kg/injection, schedule: Q01DX009 (ip), vehicle: carboxymethylcellulose (CMC) 92 % of control and 93 % of control | dose: 400.0 mg/kg/injection, schedule: Q04DX002 (ip), vehicle: carboxymethylcellulose (CMC) 92 % of control and 90 % of control | dose: 400.0 mg/kg/injection, schedule: Q04DX003 (ip), vehicle: carboxymethylcellulose (CMC) 97 % of control

FC(F)(F)c1nc2ccccc2[nH]1
inactive: dose: 50.0 mg/kg/injection, schedule: Q04DX002 (ip), vehicle: Klucel (hydroxypropylcellulose) (HPC) 86 % of control | dose: 100.0 mg/kg/injection, schedule: Q04DX002 (ip), vehicle: Klucel (hydroxypropylcellulose) (HPC) 100 % of control | dose: 200.0 mg/kg/injection, schedule: Q04DX002 (ip), vehicle: Klucel (hydroxypropylcellulose) (HPC) 93 % of control
